# In publication PMC10347545 (Journal of the American Chemical Society, 2023):
# Tests used:
# PPARγ LBD [1] = target: T1, PPARγ LBD (Homo sapiens, UniProt P37231); type: biochemical
# T1 sequence (P37231 238-503 limits assumed): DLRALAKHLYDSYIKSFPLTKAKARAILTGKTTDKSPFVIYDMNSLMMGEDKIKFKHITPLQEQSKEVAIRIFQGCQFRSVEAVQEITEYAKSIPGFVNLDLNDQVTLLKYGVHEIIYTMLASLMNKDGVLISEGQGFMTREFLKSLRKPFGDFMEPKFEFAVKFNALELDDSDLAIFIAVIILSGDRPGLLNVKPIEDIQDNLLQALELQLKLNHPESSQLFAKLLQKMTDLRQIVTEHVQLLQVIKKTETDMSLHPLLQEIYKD
# FOXO3a = FOXO3a Ser253 phosphorylation; type: cell-based; conditions: 20 μM, 16 h
# HepG2 cells = assay: Differential gene expression; type: cell-based; conditions: 20 μM
# PPARγ LBD [2] = target: T1, PPARγ LBD; assay: MS-based PPARγ ligand binding assay; conditions: 0.2–4 μM, absence and presence of 1 μM pioglitazone
# [3] = test system: human PPAR response element (PPRE); assay: PPRE reporter assay in HepG2 cells; type: cell-based
# COS7 cells = assay: Toxicity assay; type: cell-based; conditions: up to 100 μM, 24 h
# FOXO = assay: FoxO response element; type: cell-based; conditions: HepG2 cells, over time
# [4] = test system: human adipocyte-derived stem cells (ASC; ASC52telo, hTERT); assay: Adipocyte-derived stem cell differentiation; type: cell-based
# nuclear receptors = assay: Selectivity profiling in Gal4-hybrid reporter gene assays; type: cell-based, human; conditions: 100 μM
# PPARγ LBD [5] = target: T1, PPARγ LBD; type: binding
# PPARγ-RXRα heterodimer = PPARγ-RXRα heterodimer formation assay; type: biochemical
# [6] = test system: genes comprising a PPAR response element; conditions: cited from earlier work
structure (smiles),measurement,setting,value
O=C(O)CSc1nc(Cl)cc(Nc2cccc(OCCc3ccccc3)c2)n1 [compound 2],CBP-1 recruitment,PPARγ LBD [1],displaced
same,DRIP2 recruitment,PPARγ LBD [1],displaced
same,NCOR recruitment,PPARγ LBD [1],enhanced binding
same,NCoA6 recruitment,PPARγ LBD [1],weaker recruitment
same,PGC-1α recruitment,PPARγ LBD [1],weaker recruitment
same,SMRT recruitment,PPARγ LBD [1],enhanced binding
same,phosphorylation of FOXO3a at Ser253,FOXO3a,promoted phosphorylation
same,canonical PPAR signaling (gene expression),HepG2 cells,no induction
same,number of protein coding genes with significantly altered expression,"HepG2 cells; p-value <0.05, |log2(fold change)| > 1",1750
same,binding of 2 to the PPARγ LBD,PPARγ LBD [2],dose-dependent manner
same,transcriptional activity via PPRE,[3]; alone,induced transcriptional activity
same,pioglitazone-mediated PPRE activation,[3]; with pioglitazone,enhanced pioglitazone-mediated PPRE activation
same,"cytotoxic effects (apoptosis, necrosis)",COS7 cells,no cytotoxic effects
same,transcriptional activity of FOXO (FHRE activity),FOXO,diminished
same,pioglitazone-induced adipogenesis,[4],diminished
same,adipogenesis (ASC differentiation),[4]; 50 μM,did not cause adipogenesis
same,agonism / antagonism on nuclear receptors,nuclear receptors,neither revealed agonism nor antagonistic effects
same,thermal stabilization of the PPARγ LBD,PPARγ LBD [5],additive thermal stabilization
same,PPARγ:RXR heterodimerization,PPARγ-RXRα heterodimer,decreased heterodimer formation
same,dimer stabilization by pioglitazone,PPARγ-RXRα heterodimer,abrogated
"CCc1ccc(CCOc2ccc(CC3SC(=O)NC3=O)cc2)nc1 (centres unmarked) [pioglitazone, reference compound]",FOXO signaling-related gene expression,[6],no effect
same,PPARγ:RXR heterodimerization,PPARγ-RXRα heterodimer,enhanced
"CC1(C)CCC(C)(C)c2cc(C3(c4ccc(C(=O)O)cc4)OCCO3)ccc21 [SR11237, reference compound]",PPARγ:RXR heterodimerization,PPARγ-RXRα heterodimer,enhanced
